The structures appear in SMILES notation.

On the series, the source says: Components in various photoprotective imaging mixtures as described herein have been tested for solubility and stability against precipitation and discoloration in imaging solution formulation using […] as the base buffer.
Turning to `CCOC(=O)c1ccc(O)c(O)c1` [3,4-Dihydroxybenzoic Acid Ethyl Ester, 3,4-dihydroxybenzoic acid ethyl ester], the “optimal concentration window in imaging solution formulation” value (shortened to “optimal concentration window”) fell in the range of 10 to 20 mM.

For the molecule `Cc1c(C)c2c(c(C)c1O)CCC(C)(C(=O)O)O2` (stereo not drawn) [Trolox, 6-hydroxy-2,5,7,8-tetramethylchromane-2-carboxylic acid], the “optimal concentration window” value is 5 to 15 mM.

Consider `C[N+](C)(C)CC(O)CC(=O)[O-]` (stereo not drawn) [Carnitine, carnitine], for which the “optimal concentration window” value is 5 to 50 mM.

Values taken from patent US11162129B2, “Photoprotective mixtures as imaging reagents in sequencing-by-synthesis” (IsoPlexis Corporation, priority 2016, dated 2021).
